According to ChEMBL document CHEMBL4823289, “Conformational-Analysis-Guided Discovery of 2,3-Disubstituted Pyridine IDO1 Inhibitors” (ACS Med Chem Lett, 2021):

What was measured:
[1] = molecular target: T1, Cytochrome P450 2C8 (Homo sapiens, UniProt P10632); test: Inhibition of human CYP2C8
T1 sequence (P10632 whole entry): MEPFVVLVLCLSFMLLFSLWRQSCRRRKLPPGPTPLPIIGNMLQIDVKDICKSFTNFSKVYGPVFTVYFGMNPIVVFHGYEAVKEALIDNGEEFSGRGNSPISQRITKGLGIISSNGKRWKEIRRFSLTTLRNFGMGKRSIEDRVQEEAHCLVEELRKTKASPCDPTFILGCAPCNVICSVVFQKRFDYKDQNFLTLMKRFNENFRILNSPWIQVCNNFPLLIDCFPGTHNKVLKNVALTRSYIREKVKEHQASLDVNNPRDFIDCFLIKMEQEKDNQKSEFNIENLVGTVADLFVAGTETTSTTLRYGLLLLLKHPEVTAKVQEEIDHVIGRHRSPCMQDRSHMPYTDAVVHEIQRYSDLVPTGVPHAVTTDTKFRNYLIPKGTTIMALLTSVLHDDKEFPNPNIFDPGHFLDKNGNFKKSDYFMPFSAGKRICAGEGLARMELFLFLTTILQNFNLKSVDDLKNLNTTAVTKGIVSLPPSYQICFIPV

[2] = molecular target: T2, Indoleamine 2,3-dioxygenase 1 (Homo sapiens, UniProt P14902); test: Inhibition of IDO1 in IFNgamma/LPS-stimulated human whole blood preincubated for 4 hrs followed by IFNgamma/LPS stimulation and incubated for 18 hrs by Rapid-fire mass spectrometry analysis; type: tissue-based
[3] = Metabolic stability in human liver microsomes assessed as parent compound remaining at 0.5 uM after 10 mins incubation by LC-MS/MS analysis relative to control; type: ADME, Microsome; conditions: read-out: Activity
[4] = AUC in cynomolgus monkey at 1 mg/kg, iv; type: ADME, organism-based, Macaca fascicularis; parameters: dose 1 mg/kg; conditions: in vivo
[5] = Oral bioavailability in dog at 5 mg/kg; type: ADME, organism-based, Canis lupus familiaris; conditions: in vivo
[6] = Oral bioavailability in mouse at 10 mg/kg; type: ADME, organism-based; conditions: in vivo
[7] = AUC in dog at 5 mg/kg, po; type: ADME, organism-based, Canis lupus familiaris; parameters: dose 5 mg/kg; conditions: in vivo
[8] = test system: UDP-glucuronosyltransferases (UGT); test: Metabolic stability assessed as dog UGT-mediated metabolism by measuring half life; type: ADME, Canis lupus familiaris
[9] = test system: UDP-glucuronosyltransferases (UGT); test: Metabolic stability assessed as mouse UGT-mediated metabolism by measuring half life; type: ADME
[10] = AUC in rat at 0.5 mg/kg, iv; type: ADME, organism-based; parameters: dose 0.5 mg/kg; conditions: in vivo
[11] = Clearance in dog at 1 mg/kg, iv; type: ADME, organism-based, Canis lupus familiaris; conditions: in vivo
[12] = test system: Cytochrome P450 (CYP); test: Metabolic stability assessed as rat CYP-mediated metabolism by measuring half life; type: ADME
[13] = Volume of steady state distribution in rat at 0.5 mg/kg, iv; type: ADME, organism-based; conditions: in vivo, read-out: Vdss
[14] = AUC (0 to 24 hrs) in nu/nu mouse xenograft model xenografted with human SK-OV-3 cells measured in tumor at 180 mg/kg, po QD; type: ADME, organism-based; parameters: time < 24 hr, route oral, dose 180 mg/kg
[15] = Clearance in rat at 0.5 mg/kg, iv; type: ADME, organism-based; conditions: in vivo
[16] = AUC (0 to 24 hrs) in human SK-OV-3 cells xenografted in nu/nu mouse xenograft model measured in tumor at 20 mg/kg, po QD; type: ADME, organism-based; parameters: time < 24 hr, route oral, dose 20 mg/kg
[17] = Oral bioavailability in rat at 10 mg/kg; type: ADME, organism-based; conditions: in vivo
[18] = Drug metabolism in rat hepatocytes assessed as demethylated metabolite formation; type: ADME, cell-based, Hepatocyte
[19] = Volume of steady state distribution in cynomolgus monkey at 1 mg/kg, iv; type: ADME, organism-based, Macaca fascicularis; conditions: in vivo, read-out: Vdss
[20] = test system: Cytochrome P450 (CYP); test: Metabolic stability assessed as dog CYP-mediated metabolism by measuring half life; type: ADME, Canis lupus familiaris
[21] = Apparent permeability across apical to basolateral side in human Caco-2 cells; type: ADME, cell-based
[22] = Clearance in mouse at 1 mg/kg, iv; type: ADME, organism-based; conditions: in vivo
[23] = Half life in cynomolgus monkey at 1 mg/kg, iv; type: ADME, organism-based, Macaca fascicularis; conditions: in vivo
[24] = AUC in cynomolgus monkey at 5 mg/kg, po; type: ADME, organism-based, Macaca fascicularis; parameters: dose 5 mg/kg; conditions: in vivo
[25] = molecular target: Indoleamine 2,3-dioxygenase 1 (Mus musculus, UniProt P28776); test: Inhibition of IDO1 in IFNgamma-stimulated mouse M109 cells preincubated for 2 hrs followed by recombinant murine IFNgamma stimulation and measured after 18 hrs by fluorescence based microplate reader assay; type: cell-based
[26] = test system: UDP-glucuronosyltransferases (UGT); test: Metabolic stability assessed as rat UGT-mediated metabolism by measuring half life; type: ADME
[27] = Half life in mouse at 1 mg/kg, iv; type: ADME, organism-based; conditions: in vivo
[28] = Apparent permeability of the compound at pH 7.4 by PAMPA; type: ADME
[29] = AUC in dog at 1 mg/kg, iv; type: ADME, organism-based, Canis lupus familiaris; parameters: dose 1 mg/kg; conditions: in vivo
[30] = Oral bioavailability in cynomolgus monkey at 5 mg/kg; type: ADME, organism-based, Macaca fascicularis; conditions: in vivo
[31] = Volume of steady state distribution in dog at 1 mg/kg, iv; type: ADME, organism-based, Canis lupus familiaris; conditions: in vivo, read-out: Vdss
[32] = molecular target: T2, Indoleamine 2,3-dioxygenase 1; test: Inhibition of IDO1 in IFNgamma-stimulated human HeLa cells preincubated for 2 hrs followed by recombinant human IFNgamma stimulation and measured after 18 hrs by fluorescence based microplate reader assay
[33] = AUC (0 to 24 hrs) in human SK-OV-3 cells xenografted in nu/nu mouse xenograft model measured in tumor at 60 mg/kg, po QD; type: ADME, organism-based; parameters: time < 24 hr, route oral, dose 60 mg/kg
[34] = Metabolic stability in rat liver microsomes assessed as parent compound remaining at 0.5 uM after 10 mins incubation by LC-MS/MS analysis relative to control; type: ADME, Microsome; conditions: read-out: Activity
[35] = molecular target: Cytochrome P450 2C9 (Homo sapiens, UniProt P11712); test: Inhibition of human CYP2C9
[36] = AUC in mouse at 10 mg/kg, po; type: ADME, organism-based; parameters: dose 10 mg/kg; conditions: in vivo
[37] = Apparent permeability across basolateral to apical side in human Caco-2 cells; type: ADME, cell-based
[38] = Drug metabolism in dog hepatocytes assessed as demethylated metabolite formation; type: ADME, cell-based, Canis lupus familiaris, Hepatocyte
[39] = Drug metabolism in human hepatocytes assessed as demethylated metabolite formation; type: ADME, cell-based, Hepatocyte
[40] = Metabolic stability in mouse liver microsomes assessed as parent compound remaining at 0.5 uM after 10 mins incubation by LC-MS/MS analysis relative to control; type: ADME, Microsome; conditions: read-out: Activity
[41] = AUC in mouse at 1 mg/kg, iv; type: ADME, organism-based; parameters: dose 1 mg/kg; conditions: in vivo
[42] = test system: UDP-glucuronosyltransferases (UGT); test: Metabolic stability assessed as cynomolgus monkey UGT-mediated metabolism by measuring half life; type: ADME, Macaca fascicularis
[43] = Half life in dog at 1 mg/kg, iv; type: ADME, organism-based, Canis lupus familiaris; conditions: in vivo
[44] = molecular target: Cytochrome P450 (CYP) (Homo sapiens, UniProt P04798+P05177+P05181+P08684+P10632+P10635+P11509+P11712+P13584+P20813+P20815+P20853+P24462+P24903+P33260+P33261+P51589+P78329+P98187+Q02928+Q08477+Q16678+Q16696+Q5TCH4+Q6VVX0+Q7Z449+Q8TAV3+Q96SQ9+Q9HB55); test: Metabolic stability assessed as human CYP-mediated metabolism by measuring half life; type: ADME, protein assay
[45] = molecular target: Voltage-gated inwardly rectifying potassium channel KCNH2 (Homo sapiens, UniProt Q12809); test: Inhibition of hERG (unknown origin)
[46] = molecular target: UDP-glucuronosyltransferases (UGT) (Homo sapiens, UniProt O60656+O75310+O75795+P06133+P0DTE4+P0DTE5+P16662+P19224+P22309+P22310+P35503+P35504+P36537+P54855+Q6UWM9+Q9BY64+Q9HAW7+Q9HAW8+Q9HAW9); test: Metabolic stability assessed as human UGT-mediated metabolism by measuring half life; type: ADME, protein assay
[47] = molecular target: hERG (KCNH2) (Homo sapiens, UniProt Q12809); test: Inhibition of hERG (unknown origin) at 30 uM relative to control
[48] = test system: Cytochrome P450 (CYP); test: Metabolic stability assessed as mouse CYP-mediated metabolism by measuring half life; type: ADME
[49] = AUC (0 to 24 hrs) in human SK-OV-3 cells xenografted in nu/nu mouse xenograft model measured in tumor at 120 mg/kg, po QD; type: ADME, organism-based; parameters: time < 24 hr, route oral, dose 120 mg/kg
[50] = Volume of steady state distribution in mouse at 1 mg/kg, iv; type: ADME, organism-based; conditions: in vivo, read-out: Vdss
[51] = Half life in rat at 0.5 mg/kg, iv; type: ADME, organism-based; conditions: in vivo
[52] = test system: Cytochrome P450 (CYP); test: Metabolic stability assessed as cynomolgus monkey CYP-mediated metabolism by measuring half life; type: ADME, Macaca fascicularis
[53] = Drug metabolism in cynomolgus monkey hepatocytes assessed as demethylated metabolite formation; type: ADME, cell-based, Macaca fascicularis, Hepatocyte
[54] = molecular target: Cytochrome P450 2C19 (Homo sapiens, UniProt P33261); test: Inhibition of human CYP2C19
[55] = AUC in rat at 10 mg/kg, po; type: ADME, organism-based; parameters: dose 10 mg/kg; conditions: in vivo
[56] = Clearance in cynomolgus monkey at 1 mg/kg, iv; type: ADME, organism-based, Macaca fascicularis; conditions: in vivo

T2 sequence (P14902 whole entry): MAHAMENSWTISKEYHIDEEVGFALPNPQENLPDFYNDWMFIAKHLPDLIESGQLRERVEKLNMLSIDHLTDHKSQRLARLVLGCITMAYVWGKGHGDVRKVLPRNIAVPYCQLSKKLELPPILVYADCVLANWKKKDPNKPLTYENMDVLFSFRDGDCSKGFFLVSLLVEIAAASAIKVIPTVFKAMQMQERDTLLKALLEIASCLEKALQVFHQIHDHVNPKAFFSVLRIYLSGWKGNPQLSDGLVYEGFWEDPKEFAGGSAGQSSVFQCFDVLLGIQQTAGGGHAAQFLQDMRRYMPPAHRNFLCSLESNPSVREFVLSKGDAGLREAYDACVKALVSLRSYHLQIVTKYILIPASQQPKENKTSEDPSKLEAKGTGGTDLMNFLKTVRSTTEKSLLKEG
Cytochrome P450 2C19, sequence (P33261 whole entry): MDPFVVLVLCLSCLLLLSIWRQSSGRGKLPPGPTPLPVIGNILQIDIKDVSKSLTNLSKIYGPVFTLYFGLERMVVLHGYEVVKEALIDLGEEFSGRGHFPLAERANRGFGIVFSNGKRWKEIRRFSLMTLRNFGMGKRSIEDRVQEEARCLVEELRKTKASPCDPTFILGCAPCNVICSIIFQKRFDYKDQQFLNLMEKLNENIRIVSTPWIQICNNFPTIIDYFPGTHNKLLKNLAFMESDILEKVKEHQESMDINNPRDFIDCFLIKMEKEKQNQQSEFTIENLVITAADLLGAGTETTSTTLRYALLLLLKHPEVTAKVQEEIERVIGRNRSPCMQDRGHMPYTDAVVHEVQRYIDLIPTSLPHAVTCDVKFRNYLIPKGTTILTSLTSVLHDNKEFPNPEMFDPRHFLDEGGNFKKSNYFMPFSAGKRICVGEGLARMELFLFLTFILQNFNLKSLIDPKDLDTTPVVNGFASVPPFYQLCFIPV
Cytochrome P450 2C9, sequence (P11712 whole entry): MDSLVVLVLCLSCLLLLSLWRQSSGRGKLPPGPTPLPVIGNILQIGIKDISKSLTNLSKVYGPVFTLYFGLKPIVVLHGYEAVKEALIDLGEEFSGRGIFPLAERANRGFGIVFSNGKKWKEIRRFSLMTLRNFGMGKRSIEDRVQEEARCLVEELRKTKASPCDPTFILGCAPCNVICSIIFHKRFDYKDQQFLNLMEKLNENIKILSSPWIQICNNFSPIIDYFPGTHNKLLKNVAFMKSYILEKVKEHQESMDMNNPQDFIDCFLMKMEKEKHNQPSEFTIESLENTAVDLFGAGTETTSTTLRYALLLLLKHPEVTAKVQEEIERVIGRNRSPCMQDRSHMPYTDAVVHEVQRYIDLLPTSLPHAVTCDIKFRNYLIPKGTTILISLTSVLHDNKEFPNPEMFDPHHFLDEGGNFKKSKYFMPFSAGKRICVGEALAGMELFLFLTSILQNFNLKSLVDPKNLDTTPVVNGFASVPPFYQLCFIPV
hERG (KCNH2), sequence (Q12809 whole entry): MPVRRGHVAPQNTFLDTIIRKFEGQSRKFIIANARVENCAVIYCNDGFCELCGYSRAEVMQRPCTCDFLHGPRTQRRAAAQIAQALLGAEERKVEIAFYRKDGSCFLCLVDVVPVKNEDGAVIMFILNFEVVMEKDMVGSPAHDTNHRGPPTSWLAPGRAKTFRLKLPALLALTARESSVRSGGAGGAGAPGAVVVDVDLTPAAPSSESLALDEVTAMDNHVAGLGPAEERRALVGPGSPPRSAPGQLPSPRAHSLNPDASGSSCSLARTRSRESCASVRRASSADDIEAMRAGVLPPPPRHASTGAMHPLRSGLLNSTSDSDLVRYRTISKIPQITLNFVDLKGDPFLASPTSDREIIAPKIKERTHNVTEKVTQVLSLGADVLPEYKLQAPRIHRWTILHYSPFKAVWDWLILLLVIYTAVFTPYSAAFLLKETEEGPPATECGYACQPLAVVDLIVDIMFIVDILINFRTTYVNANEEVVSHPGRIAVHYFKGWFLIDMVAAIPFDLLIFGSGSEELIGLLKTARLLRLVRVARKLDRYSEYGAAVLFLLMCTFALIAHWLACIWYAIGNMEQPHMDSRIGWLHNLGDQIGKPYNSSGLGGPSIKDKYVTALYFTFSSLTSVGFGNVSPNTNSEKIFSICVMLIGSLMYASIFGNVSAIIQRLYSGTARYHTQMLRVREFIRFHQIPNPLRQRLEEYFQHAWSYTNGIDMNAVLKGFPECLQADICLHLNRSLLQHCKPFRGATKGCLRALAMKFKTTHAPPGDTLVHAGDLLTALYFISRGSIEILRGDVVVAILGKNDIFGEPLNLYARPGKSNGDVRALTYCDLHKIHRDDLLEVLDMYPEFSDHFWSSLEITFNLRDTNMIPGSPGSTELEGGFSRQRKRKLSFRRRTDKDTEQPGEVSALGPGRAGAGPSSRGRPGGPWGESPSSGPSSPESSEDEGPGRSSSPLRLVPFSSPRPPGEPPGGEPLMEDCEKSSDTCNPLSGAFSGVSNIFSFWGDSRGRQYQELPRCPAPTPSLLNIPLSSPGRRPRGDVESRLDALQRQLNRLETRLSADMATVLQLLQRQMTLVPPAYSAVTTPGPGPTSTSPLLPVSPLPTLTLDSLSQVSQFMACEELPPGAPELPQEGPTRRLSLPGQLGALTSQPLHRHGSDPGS
Voltage-gated inwardly rectifying potassium channel KCNH2, sequence (Q12809 whole entry): as above
Indoleamine 2,3-dioxygenase 1 (Mus musculus, UniProt P28776), sequence (P28776 whole entry): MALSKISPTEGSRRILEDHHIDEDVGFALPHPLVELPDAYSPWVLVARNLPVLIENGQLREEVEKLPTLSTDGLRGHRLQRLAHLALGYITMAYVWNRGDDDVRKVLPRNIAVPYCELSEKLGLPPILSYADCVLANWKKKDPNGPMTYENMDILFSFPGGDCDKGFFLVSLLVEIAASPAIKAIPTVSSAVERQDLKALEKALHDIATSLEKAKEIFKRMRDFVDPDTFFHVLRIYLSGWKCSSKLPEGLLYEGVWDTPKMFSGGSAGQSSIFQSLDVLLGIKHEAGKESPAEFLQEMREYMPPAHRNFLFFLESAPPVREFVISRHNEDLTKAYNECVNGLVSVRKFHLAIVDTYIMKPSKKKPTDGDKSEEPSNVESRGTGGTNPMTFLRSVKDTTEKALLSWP

CC[C@@H](NC(=O)c1ccc(OC)nc1)[C@H]1CC[C@@H](c2ccnc(OC)c2C(F)F)CC1
IC50 [1]: 4.01 µM
IC50 [2]: 0.0023 µM
remaining at 10 min, 0.5 µM [3]: 87%
AUC [4]: 1.3 µM·h
bioavailability [5]: 28%
bioavailability [6]: 33%
AUC [7]: 3.2 µM·h
half-life [8]: > 2 h
half-life [9]: > 2 h
AUC [10]: 1.3 µM·h
clearance [11]: 18 mL/min/kg
half-life [12]: 0.333 h
Vd [13]: 4 L/kg
AUC at 24 h [14]: 13 µM·h
clearance [15]: 15 mL/min/kg
AUC at 24 h [16]: 7.9 µM·h
bioavailability [17]: 34%
Drug metabolism [18]: Metabolite_Detected
Vd [19]: 4.5 L/kg
half-life [20]: 7 min
Papp A→B [21]: 12.2 ×10⁻⁶ cm/s
clearance [22]: 33 mL/min/kg
half-life [23]: 11 h
AUC [24]: 0.029 µM·h
IC50 [25]: 0.014 µM
half-life [26]: > 2 h
half-life [27]: 5 h
Papp [28]: 107 ×10⁻⁶ cm/s
AUC [29]: 2.3 µM·h
F [30]: 4.5%
Vd [31]: 9 L/kg
IC50 [32]: 0.002 µM
AUC at 24 h [33]: 9.2 µM·h
remaining at 10 min, 0.5 µM [34]: 90%
IC50 [35]: 1.89 µM
AUC [36]: 3.9 µM·h
Papp B→A [37]: 5.6 ×10⁻⁶ cm/s
Drug metabolism [38]: Metabolite_Detected
Drug metabolism [39]: Metabolite_Detected
remaining at 10 min, 0.5 µM [40]: 60%
AUC [41]: 1.2 µM·h
half-life [42]: > 2 h
half-life [43]: 14 h
half-life [44]: 0.533 h
IC50 [45]: 17.4 µM
half-life [46]: > 2 h
inhibition at 30 µM [47]: 61%
half-life [48]: 0.183 h
AUC at 24 h [49]: 13 µM·h
Vd [50]: 6.2 L/kg
half-life [51]: 7.1 h
half-life [52]: 3 min
Drug metabolism [53]: Metabolite_Detected
IC50 [54]: 9.5 µM
AUC [55]: 8.7 µM·h
clearance [56]: 29 mL/min/kg
